We go through 7 compounds from patent publication US8546320B2, “Hsp9O-targeted anti-cancer chimeric peptide” (Kyoto University, priority 2008, dated 2013).

Where two headings read alike, the source gives them in different places. Where a SMILES comes first, the peptide text is derived from it.

For assay [1], the system named is BXPC-3. It is filed as cell-based, human.
In assay [2] the test system is T47D. It is filed as cell-based, human. The conditions noted are these: T47D. The procedure: A total of 3×10^3 cells were inoculated per well on a 96 well plate and cultured in a medium containing 10% FBS for 24 hours, and incubated with 100 μl of a peptide having a gradual increase in concentration at 37° C. for 48 to 72 hours. The survival rate of the cells was measured by using WST-8 solution (Cell Count Reagent SF; Nacalai Tesque, Inc.).

For assay [3], the system named is Caki-1. It is filed as cell-based, human. The conditions noted are these: Caki-1; for Anti-cancer activity (% relative to wild-type peptide) / Decrease in cell survival rate (% relative to wild-type peptide): wild-type peptide = 100%.
Assay [4] relates to U937. Put plainly: cells. It counts as cell-based, human. The conditions noted are these: for killing effect compared with the wild-type peptide / Anti-cancer activity (% relative to wild-type peptide) / Decrease in cell survival rate (% relative to wild-type peptide): U937; for Anti-cancer activity (% relative to wild-type peptide) / Decrease in cell survival rate (% relative to wild-type peptide): wild-type peptide = 100%. The procedure: A total of 3×10^3 cells per well were inoculated onto a 96 well plate, and incubated in a medium containing 10% FBS with 100 μl of a peptide diluted stepwise at 37° C. for 48 to 72 hours. The survival rate of the cells was measured by using WST-8 solution (Cell Count Reagent SF; Nacalai Tesque, Inc.).

In assay [5] the test system is cancer cells. Put plainly: Cell viability assay, summary statements on cancer cells. The conditions noted are these: single mutation in TPR or Antp region of Antp-TPR. It is filed as cell-based.
The target of assay [6] is T1, interaction between Hsp90 and the Hop's TPR2A domain (Homo sapiens, UniProt P07900).
T1 construct: histidine tag; made in house; host or cells: Hsp90: E. coli BL21 (pDEST17-Hsp90)
Description: BIACORE competition: Hsp90 pre-mixed with peptide, added to immobilized TPR2A. It is filed as binding. The conditions noted are these: increasing peptide concentration. An excerpt:
It was examined whether the TPR peptide designed could compete specifically with the interaction between Hsp90, which is essential for the accurate folding of some carcinogenic protein including survivin in cancer cells, and the Hop's TPR2A domain.

In the case of `CC[C@H](C)[C@H](NC(=O)[C@H](CCCNC(=N)N)NC(=O)[C@H](C)NC(=O)[C@H](Cc1ccc(O)cc1)NC(=O)[C@H](C)NC(=O)[C@H](CCCCN)NC(=O)[C@H](CCCNC(=N)N)NC(=O)[C@H](CCCNC(=N)N)NC(=O)[C@H](CCCNC(=N)N)NC(=O)[C@H](CCC(N)=O)NC(=O)[C@H](CCCNC(=N)N)NC(=O)[C@H](CCCNC(=N)N)NC(=O)[C@H](CCCCN)NC(=O)[C@H](CCCCN)NC(=O)[C@H](CCCNC(=N)N)NC(=O)CNC(=O)[C@@H](N)Cc1ccc(O)cc1)C(=O)NCC(=O)N[C@@H](CC(N)=O)C(=O)N[C@@H](CO)C(=O)N[C@@H](Cc1ccc(O)cc1)C(=O)N[C@@H](Cc1ccccc1)C(=O)N[C@@H](CCCCN)C(=O)O` (H-YGRKKRRQRRRKAYARIGNSYFK-OH), the “Cell Survival Rate (%)” value is 82.25% in assay [1] (Bxpc3, 21 μM); 73.08% in assay [1] (Bxpc3, 42 μM); 60.49% in assay [1] (Bxpc3, 84 μM); 47.24% in assay [1] (Bxpc3, 168 μM); 77.68% in assay [2] (21 μM); 58.60% in assay [2] (42 μM). The results for the “Cell Survival Rate (%)” value in assay [2] (84 μM) and in assay [2] (168 μM) were 74.23% and 17.92%, respectively.

`CC[C@H](C)[C@H](NC(=O)[C@H](CCCNC(=N)N)NC(=O)[C@H](C)NC(=O)[C@H](Cc1ccc(O)cc1)NC(=O)[C@H](C)NC(=O)[C@H](CCCCN)NC(=O)[C@H](CCCCN)NC(=O)[C@H](CCCCN)NC(=O)[C@H](Cc1c[nH]c2ccccc12)NC(=O)[C@H](CCCCN)NC(=O)[C@H](CCSC)NC(=O)[C@H](CCCNC(=N)N)NC(=O)[C@H](CCCNC(=N)N)NC(=O)[C@H](CC(N)=O)NC(=O)[C@H](CCC(N)=O)NC(=O)[C@H](Cc1ccccc1)NC(=O)[C@H](Cc1c[nH]c2ccccc12)NC(=O)[C@@H](NC(=O)[C@H](CCCCN)NC(=O)[C@@H](NC(=O)[C@H](CCC(N)=O)NC(=O)[C@@H](N)CCCNC(=N)N)[C@@H](C)CC)[C@@H](C)CC)C(=O)NCC(=O)N[C@@H](CCC(N)=O)C(=O)N[C@@H](CO)C(=O)N[C@@H](Cc1ccc(O)cc1)C(=O)N[C@@H](Cc1ccccc1)C(=O)N[C@@H](CCCCN)C(=O)O` [Antp-N8Q] (H-RQIKIWFQNRRMKWKKKAYARIGQSYFK-OH; N-terminus and C-terminus assumed): in assay [3], the “Anti-cancer activity (% relative to wild-type peptide)” value stood at 98.57% and the “Decrease in cell survival rate (% relative to wild-type peptide)” value (from here on “Decrease … (% relative to wild-type peptide)”) worked out at 89.35%. Also, in assay [4], the “Cell Survival Rate (%)” value worked out at 10.06%, the “killing effect compared with the wild-type peptide” value was “increase in effect”, the “Anti-cancer activity (% relative to wild-type peptide)” value is on record as 117.17% and the “Decrease … (% relative to wild-type peptide)” value is recorded as 230.94%. Besides, the “effect compared with the wild-type protein (summary of mutations)” value in assay [5] is reported as “effect higher than the wild-type protein”.

Regarding `CC[C@H](C)[C@H](NC(=O)[C@H](CCCCN)NC(=O)[C@H](C)NC(=O)[C@H](Cc1ccc(O)cc1)NC(=O)[C@H](C)NC(=O)[C@H](CCCCN)NC(=O)[C@H](CCCCN)NC(=O)[C@H](CCCCN)NC(=O)[C@H](Cc1c[nH]c2ccccc12)NC(=O)[C@H](CCCCN)NC(=O)[C@H](CCSC)NC(=O)[C@H](CCCNC(=N)N)NC(=O)[C@H](CCCNC(=N)N)NC(=O)[C@H](CC(N)=O)NC(=O)[C@H](CCC(N)=O)NC(=O)[C@H](Cc1ccccc1)NC(=O)[C@H](Cc1c[nH]c2ccccc12)NC(=O)[C@@H](NC(=O)[C@H](CCCCN)NC(=O)[C@@H](NC(=O)[C@H](CCC(N)=O)NC(=O)[C@@H](N)CCCNC(=N)N)[C@@H](C)CC)[C@@H](C)CC)C(=O)NCC(=O)N[C@@H](CC(N)=O)C(=O)N[C@@H](CO)C(=O)N[C@@H](Cc1ccc(O)cc1)C(=O)N[C@@H](Cc1ccccc1)C(=O)N[C@@H](CCCCN)C(=O)O` [Antp-R5K] (H-RQIKIWFQNRRMKWKKKAYAKIGNSYFK-OH; N-terminus and C-terminus assumed), in assay [3], the “Anti-cancer activity (% relative to wild-type peptide)” value was 6.58% and the “Decrease … (% relative to wild-type peptide)” value came out at 11.34%. In assay [4], the “Cell Survival Rate (%)” value came out at 92.57%, the “Anti-cancer activity (% relative to wild-type peptide)” value is on record as 9.68% and the “Decrease … (% relative to wild-type peptide)” value is recorded as 25.10%. For the same compound, the “effect compared with the wild-type protein (summary of mutations)” value in assay [5] is recorded as “effective but with a lower effect than the wild-type protein”.

Take `CC[C@H](C)[C@H](NC(=O)[C@H](CCCNC(=N)N)NC(=O)[C@H](C)NC(=O)[C@H](Cc1ccc(O)cc1)NC(=O)[C@H](C)NC(=O)[C@H](CCCCN)NC(=O)[C@H](CCCCN)NC(=O)[C@H](CCCCN)NC(=O)[C@H](Cc1c[nH]c2ccccc12)NC(=O)[C@H](CCCCN)NC(=O)[C@H](CCSC)NC(=O)[C@H](CCCNC(=N)N)NC(=O)[C@H](CCCNC(=N)N)NC(=O)[C@H](CC(N)=O)NC(=O)[C@H](CCC(N)=O)NC(=O)[C@H](Cc1ccccc1)NC(=O)[C@H](Cc1c[nH]c2ccccc12)NC(=O)[C@@H](NC(=O)[C@H](CCCCN)NC(=O)[C@@H](NC(=O)[C@H](CCC(N)=O)NC(=O)[C@@H](N)CCCNC(=N)N)[C@@H](C)CC)[C@@H](C)CC)C(=O)NCC(=O)N[C@@H](CC(N)=O)C(=O)N[C@@H](Cc1ccc(O)cc1)C(=O)N[C@@H](Cc1ccc(O)cc1)C(=O)N[C@@H](Cc1ccccc1)C(=O)N[C@@H](CCCCN)C(=O)O` [Antp-S9Y] (H-RQIKIWFQNRRMKWKKKAYARIGNYYFK-OH; N-terminus and C-terminus assumed): in assay [3], the “killing effect compared with the wild-type peptide” value was “stronger than that of the wild-type peptide”, the “Anti-cancer activity (% relative to wild-type peptide)” value stood at 106.80% and the “Decrease … (% relative to wild-type peptide)” value is given as 232.05%. Moreover, in assay [4], the “Cell Survival Rate (%)” value stood at 12.73%, the “killing effect compared with the wild-type peptide” value was “increase in effect”, the “Anti-cancer activity (% relative to wild-type peptide)” value came out at 113.69% and the “Decrease … (% relative to wild-type peptide)” value was determined as 182.60%. Moreover, the “effect compared with the wild-type protein (summary of mutations)” value in assay [5] is reported as “effect higher than the wild-type protein”.

Regarding `CC[C@H](C)[C@H](NC(=O)[C@H](CCCNC(=N)N)NC(=O)[C@H](C)NC(=O)[C@H](CC(C)C)NC(=O)[C@H](C)NC(=O)[C@H](CCCCN)NC(=O)[C@H](CCCCN)NC(=O)[C@H](CCCCN)NC(=O)[C@H](Cc1c[nH]c2ccccc12)NC(=O)[C@H](CCCCN)NC(=O)[C@H](CCSC)NC(=O)[C@H](CCCNC(=N)N)NC(=O)[C@H](CCCNC(=N)N)NC(=O)[C@H](CC(N)=O)NC(=O)[C@H](CCC(N)=O)NC(=O)[C@H](Cc1ccccc1)NC(=O)[C@H](Cc1c[nH]c2ccccc12)NC(=O)[C@@H](NC(=O)[C@H](CCCCN)NC(=O)[C@@H](NC(=O)[C@H](CCC(N)=O)NC(=O)[C@@H](N)CCCNC(=N)N)[C@@H](C)CC)[C@@H](C)CC)C(=O)NCC(=O)N[C@@H](CC(N)=O)C(=O)N[C@@H](CO)C(=O)N[C@@H](Cc1ccc(O)cc1)C(=O)N[C@@H](Cc1ccccc1)C(=O)N[C@@H](CCCCN)C(=O)O` [Antp-Y3L] (H-RQIKIWFQNRRMKWKKKALARIGNSYFK-OH; N-terminus and C-terminus assumed), in assay [3], the “Anti-cancer activity (% relative to wild-type peptide)” value was found to be 52.87% and the “Decrease … (% relative to wild-type peptide)” value was found to be 20.23%. In assay [4], the “Cell Survival Rate (%)” value came to 60.94%, the “Anti-cancer activity (% relative to wild-type peptide)” value was found to be 50.89% and the “Decrease … (% relative to wild-type peptide)” value turned out to be 38.14%. For the same compound, the “effect compared with the wild-type protein (summary of mutations)” value in assay [5] is listed as “effective but with a lower effect than the wild-type protein”.

Take `CC[C@H](C)[C@H](NC(=O)[C@H](CCCNC(=N)N)NC(=O)[C@H](C)NC(=O)[C@H](Cc1ccc(O)cc1)NC(=O)[C@H](C)NC(=O)[C@H](CCCCN)NC(=O)[C@H](CCCCN)NC(=O)[C@H](CCCCN)NC(=O)[C@H](Cc1c[nH]c2ccccc12)NC(=O)[C@H](CCCCN)NC(=O)[C@H](CCSC)NC(=O)[C@H](CCCNC(=N)N)NC(=O)[C@H](CCCNC(=N)N)NC(=O)[C@H](CC(N)=O)NC(=O)[C@H](CCC(N)=O)NC(=O)[C@H](Cc1ccccc1)NC(=O)[C@H](Cc1c[nH]c2ccccc12)NC(=O)[C@@H](NC(=O)[C@H](CCCCN)NC(=O)[C@@H](NC(=O)[C@H](CCC(N)=O)NC(=O)[C@@H](N)CCCNC(=N)N)[C@@H](C)CC)[C@@H](C)CC)C(=O)NCC(=O)N[C@@H](CC(N)=O)C(=O)N[C@@H](CO)C(=O)N[C@@H](CO)C(=O)N[C@@H](Cc1ccccc1)C(=O)N[C@@H](CCCCN)C(=O)O` [Antp-Y10S] (H-RQIKIWFQNRRMKWKKKAYARIGNSSFK-OH; N-terminus and C-terminus assumed): in assay [3], the “Anti-cancer activity (% relative to wild-type peptide)” value is recorded as 74.56% and the “Decrease … (% relative to wild-type peptide)” value is 31.97%. Further, in assay [4], the “Cell Survival Rate (%)” value came out at 28.05%, the “Anti-cancer activity (% relative to wild-type peptide)” value amounted to 93.73% and the “Decrease … (% relative to wild-type peptide)” value stood at 82.83%. The “effect compared with the wild-type protein (summary of mutations)” value in assay [5] is reported as “effect similar to that of the wild-type protein”.

As for “TPR mutant 1: TPR mutant 1 peptide without Antp, SEQ ID No. 70; sequence not printed in the text (KAYAAAGNSYTFK; TPR mutant 1)”, the “inhibition of the interaction between Hsp90 and TPR2A” value in assay [6] is “does not inhibit the interaction completely”.
